Experimental data: PubChem BioAssay (NCI)
“And” between values parts separate entries of the source, which are not always exact repeats. Identical values can stand only once.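 All cell lines were grown in 96-well plates and treated with compound for 48 hours. GI50 = concentration required for 50% inhibition of growth. The concentration for full growth arrest is given as TGI.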

How the values were obtained:
Assay in all cases: inhibition of tumour cell growth, NCI panel, 48 h
[1] = system: CAKI-1 renal
[2] = system: HL-60(TB) leukemia
[3] = system: HOP-92 NSCLC
[4] = system: MCF7 breast
[5] = system: NCI-H460 lung
[6] = system: OVCAR-3 ovarian
[7] = system: OVCAR-4 ovarian
[8] = system: SF-539 CNS
[9] = system: SK-MEL-28 melanoma
[10] = system: SK-OV-3 ovarian

Compound | GI50 [1] [µM] | TGI [1] [µM] | GI50 [2] | TGI [2] | GI50 [3] [µM] | TGI [3] [µM] | GI50 [4] [µM] | TGI [4] [µM] | GI50 [5] [µM] | TGI [5] [µM] | GI50 [6] [µM] | TGI [6] [µM] | GI50 [7] [µM] | TGI [7] [µM] | GI50 [8] [µM] | TGI [8] [µM] | GI50 [9] [µM] | TGI [9] [µM] | GI50 [10] [µM] | TGI [10] [µM]
Nc1ccccc1C#C/C=C\C#Cc1ccccc1C#CCO | 4.1 | 18 | 8.49 µM | > 50 µM | 11.9 | > 50 | 7.87 | > 50 | 8.73 | 22 | 6.63 | 18.5 | 14 | 41.4 | 10.8 | 27.1 | 15.3 | > 50 | 12.1 | 27
Cc1ccc(/C=N/NC(=O)c2ccccc2Oc2ccccc2)o1 | 34.1 | > 100 | 22.8 µM | > 74.1 µM | 12.5 | > 95.4 | 32.9 | > 100 | 44.4 | > 100 | 40.1 | > 100 | 24.6 | > 100 | > 83.6 | > 100 | 36.6 | > 100 | 77.6 | > 100
Cc1ccc(C[As+](c2ccccc2)(c2ccccc2)c2ccccc2)cc1 | 8.85 | 43.9 | 0.286 µM | 1.48 µM | 0.158 | 0.961 | 0.621 | 17.2 | 0.674 | 8.36 | 0.611 | 13.9 | 0.778 | > 100 | 1.71 | 28.3 | 0.927 | 18.5 | 1.82 | > 23.5
CNC(=O)ON(C(C)=O)C(=O)NC |  | 146 | 14.2 µM and 8.38 µM | 37.7 µM and 29.5 µM | > 56 | 64.4 |  | 154 |  | 220 | > 81.9 | 140 |  | 142 |  | 145 |  | 159 |  | 276
O=C(O)CCC(c1ccccc1)(c1ccccc1)c1ccccc1 | 66.4 | > 100 |  | > 90.6 µM |  | > 73.9 |  | > 71 |  | > 91.2 |  | > 69.6 |  | > 100 |  | > 100 |  | > 100 |  | > 100
c1ccc(-c2[nH]ncc2-c2ccnc(-c3ccc(OCCN4CCOCC4)cc3)c2)nc1 | > 25 | > 25 | > 25 µM | > 25 µM | > 25 | > 25 | > 25 | > 25 | > 25 | > 25 | > 25 | > 25 | > 25 | > 25 | > 25 | > 25 | > 25 | > 25 | > 25 | > 25
NS(=O)(=O)c1ccc(N=Nc2ccc[nH]c2=O)cc1 |  | > 100 |  | > 100 µM |  | > 100 |  | > 100 |  | > 100 |  | > 100 |  | > 100 |  | > 100 |  | > 100 |  | > 100
